In US20120040930A1, “TETRACYCLIC TERPENE SERIES COMPOUNDS, METHODS FOR PREPARING SAME, USES THEREOF AS MEDICINES AND PHARMACEUTICAL COMPOUNDS CONTAINING SAME” (priority 2005, published 2012):

target: T1, acetylcholinesterase (AChE) isolated from Electrophorus electricus (Electrophorus electricus, UniProt O42275); assay: biochemical; conditions: AChE IC50
T1 construct: AChE isolated from Electrophorus electricus; from tissue
T1 sequence (O42275 24-633): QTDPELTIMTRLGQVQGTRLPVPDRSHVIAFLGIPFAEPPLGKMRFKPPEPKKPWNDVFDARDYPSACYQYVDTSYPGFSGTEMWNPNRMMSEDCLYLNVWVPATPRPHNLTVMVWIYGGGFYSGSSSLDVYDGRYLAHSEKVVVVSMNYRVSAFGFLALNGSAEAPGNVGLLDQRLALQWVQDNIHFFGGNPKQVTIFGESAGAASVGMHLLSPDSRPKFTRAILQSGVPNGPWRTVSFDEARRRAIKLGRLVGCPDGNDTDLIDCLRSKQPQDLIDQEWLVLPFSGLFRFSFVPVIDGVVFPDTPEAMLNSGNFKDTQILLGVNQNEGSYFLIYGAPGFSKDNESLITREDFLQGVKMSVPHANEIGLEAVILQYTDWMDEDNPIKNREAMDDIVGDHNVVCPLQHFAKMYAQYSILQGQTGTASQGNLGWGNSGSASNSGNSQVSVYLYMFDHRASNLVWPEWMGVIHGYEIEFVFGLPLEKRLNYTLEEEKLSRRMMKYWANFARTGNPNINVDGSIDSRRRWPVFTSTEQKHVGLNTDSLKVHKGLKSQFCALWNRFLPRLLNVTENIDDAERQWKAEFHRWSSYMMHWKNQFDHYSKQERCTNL

| SMILES | IC50 [µM] |
| --- | --- |
| CC(C)C1=N[C@H]2CC=C3C[C@H]4C(=O)C[C@]5(C)[C@@H]([C@H](C)N(C)C)[C@H](OC(=O)C(C)(C)C)C[C@@]5(C)[C@@H]4CC[C@H]3[C@]2(C)CO1 [Compound 39, (20S)-10(9->1)abeo-20-dimethylamino-4β,14α-dimethyl-16α-pivalyl-(2′-isopropyl-3,29-dihydro-4H-[1,3]-oxazine)-5α,9β-pregn-1(10)-en-11-one] | 0.198 |
| CC(=O)O[C@@H]1C[C@@]2(C)[C@@H]3CC[C@@H]4C(=CC[C@@H]5N=C(C(C)C)OC[C@]54C)C[C@H]3C(=O)C[C@]2(C)[C@H]1[C@H](C)N(C)C [Compound 40] | 0.112 |

same assay, conditions: AChE isolated from Electrophorus electricus; read-out: AChE IC50

| SMILES | IC50 [µM] |
| --- | --- |
| C[C@@H]([C@H]1[C@H](O)C[C@@]2(C)[C@@H]3CC[C@@H]4C5(CC[C@H](NC(=O)Cc6ccccc6)[C@@]4(C)CO)C[C@@]35C(=O)C[C@]12C)N(C)C (stereo partly drawn) [Compound 6g, (20S)-9,19-cyclo-4α-hydroxymethyl-4,14α-dimethyl-20-dimethylamino-3 (phenylacetylamino)-5α,9-pregnan-16α-ol-11-one] | > 5 |
| CC1=N[C@H]2CC=C3C[C@H]4C(=O)C[C@]5(C)[C@@H]([C@H](C)N(C)C)[C@H](O)C[C@@]5(C)[C@@H]4CC[C@H]3[C@]2(C)CO1 [Compound 8a, (20S)-10(9->1)abeo-4,14α-dimethyl-20-dimethylamino(2′-methyl-4′,4′-dihydro[3′,1′]oxazin)-5α,9-pregn-1(10)-en-16α-ol-11-one] | 0.676 |
| CC(C)[C@H]1N[C@H]2CC=C3C[C@H]4C(=O)C[C@]5(C)[C@@H]([C@H](C)N(C)C)[C@H](O)C[C@@]5(C)[C@@H]4CC[C@H]3[C@]2(C)CO1 [Compound 12, (20S)-10(9->1)abeo-4,14α-dimethyl-20-dimethylamino(2′β-isopropyl-1′,2′,4′,4′-tetrahydro[3′,1′]oxazin)-5α,9-pregn-1(10)-en-16α-ol-11-one] | 0.823 |
| CN[C@@H](C)[C@H]1[C@H](O)C[C@@]2(C)[C@@H]3CC[C@@H]4C(=CCC5N=C(C(C)C)OC[C@]54C)C[C@H]3C(=O)C[C@]12C (stereo partly drawn) [Compound 33, (20S)-10(9->1)abeo-20-methylamino-4β,14α-dimethyl-(2′-isopropyl-3,29-dihydro-4H-[1,3]-oxazine)-5α,9β-pregn-1(10)-en-16α-ol-11-one] | 0.106 |
| CC(C)C(=O)N[C@H]1CCC23C[C@@]24[C@@H](CC[C@H]3[C@]1(C)CO)[C@]1(C)C[C@@H](O)[C@H]([C@H](C)N(C)C)[C@@]1(C)C[C@@H]4O (stereo partly drawn) [Compound 34, (20S)-20-dimethylamino-3β-(isobutyrylamino)-9,19-cyclo-4α-hydroxymethyl-4β,14α-dimethyl-5α,9β-pregnan-11β,16α-diol-11-one] | > 100 |
| CC[C@H](C)C(=O)N[C@H]1CCC23C[C@@]24[C@@H](CC[C@H]3[C@]1(C)CO)[C@]1(C)C[C@@H](O)[C@H]([C@H](C)N(C)C)[C@@]1(C)C[C@@H]4O (stereo partly drawn) [Compound 35, (20S)-20-dimethylamino-3β-((S)-2-methylbutyrylamino)-9,19-cyclo-4α-hydroxymethyl-4β,14α-dimethyl-5α,9β-pregnan-11β,16α-diol-11-one] | > 100 |
| Cc1ccc(S(=O)(=O)O[C@@H]2C[C@@]3(C)[C@@H]4CC[C@@H]5C6(CC[C@H](NC(=O)C(C)C)[C@@]5(C)CO)C[C@@]46C(=O)C[C@]3(C)[C@H]2[C@H](C)N(C)C)cc1 (stereo partly drawn) [Compound 36, (20S)-3β-isobutyrylamino-20-dimethylamino-9,19-cyclo-4β,14α-dimethyl-4α-hydroxymethyl-16α-tosyl-5α,9β-pregnan-11-one] | > 100 |
| CC(C)C(=O)N[C@H]1CCC23C[C@]24C(=O)C[C@]2(C)[C@@H]([C@H](C)N(C)C)[C@H](OS(C)(=O)=O)C[C@@]2(C)[C@@H]4CC[C@H]3[C@]1(C)CO (stereo partly drawn) [Compound 37, (20S)-3β-isobutyrylamino-20-dimethylamino-9,19-cyclo-4β,14α-dimethyl-4α-hydroxymethyl-16α-mesyl-5α,9β-pregnan-11-one] | ≥ 100 |
| CC(C)C1=N[C@H]2CCC34C[C@]35C(=O)C[C@]3(C)[C@@H]([C@H](C)N(C)C)[C@H](OC(=O)C(C)(C)C)C[C@@]3(C)[C@@H]5CC[C@H]4[C@]2(C)CO1 (stereo partly drawn) [Compound 38, (20S)-20-dimethylamino-9,19-cyclo-4β,14α-dimethyl-16α-pivalyl-(2′-isopropyl-3,29-dihydro-4H-[1,3]-oxazine)-5α,9β-pregn-11-one] | 0.181 |
| CC(=O)OC[C@]1(C)[C@@H](NC(=O)C(C)C)CCC23C[C@]24C(=O)C[C@]2(C)[C@@H]([C@H](C)N(C)C)[C@H](O)C[C@@]2(C)[C@@H]4CC[C@H]31 (stereo partly drawn) [Compound 41, (20S)-3β-isobutyrylamino-20-dimethylamino-9,19-cyclo-4β,14α-dimethyl-4α-acetylmethyl-5α,9β-pregnan-16α-ol-11-one] | > 100 |
| CC(=O)OC[C@]1(C)[C@@H](NC(=O)C(C)C)CCC23C[C@]24C(=O)C[C@]2(C)[C@@H]([C@H](C)N(C)C)[C@H](OC(C)=O)C[C@@]2(C)[C@@H]4CC[C@H]31 (stereo partly drawn) [Compound 42, (20S)-16α-acetyl-3β-isobutyrylamino-20-dimethylamino-9,19-cyclo-4β,14α-dimethyl-4α-acetylmethyl-5α,9β-pregnan-11-one] | > 100 |
| CN[C@@H](C)[C@H]1[C@H](OC(=O)C(C)(C)C)C[C@@]2(C)[C@@H]3CC[C@@H]4C5(CC[C@H](NC(=O)C(C)C)[C@@]4(C)C=O)C[C@@]35C(=O)C[C@]12C (stereo partly drawn) [Compound 43, (20S)-3β-isobutyrylamino-20-methylamino-9,19-cyclo-4β,14α-dimethyl-4α-formyl-16α-pivalyl-5α,9β-pregnan-11-one] | > 100 |
| CC(C)C(=O)N[C@H]1CCC23C[C@]24C(=O)C[C@]2(C)[C@@H]([C@H](C)N(C)C)[C@H](O)C[C@@]2(C)[C@@H]4CC[C@H]3[C@]1(C)C=O (stereo partly drawn) [Compound 44, (20S)-3β-isobutyrylamino-20-dimethylamino-9,19-cyclo-4β,14α-dimethyl-4α-formyl-5α,9β-pregnan-16α-ol-11-one] | > 100 |
| CC(C)C(=O)N[C@H]1CCC23C[C@]24C(=O)C[C@]2(C)[C@@H]([C@H](C)N(C)C)[C@H](O)C[C@@]2(C)[C@@H]4CC[C@H]3[C@]1(C)/C=N/Cc1ccccc1 (stereo partly drawn) [Compound 45, (20S)-20-dimethylamino-3β-(isobutyrylamino)-9,19-cyclo-4α-benzyliminomethyl-4β,14α-dimethyl-5α,9β-pregnan-16α-ol-11-one] | > 100 |
| CC(C)C(=O)N[C@H]1CCC23C[C@]24C(=O)C[C@]2(C)[C@@H]([C@H](C)N(C)C)[C@H](O)C[C@@]2(C)[C@@H]4CC[C@H]3[C@]1(C)CNCc1ccccc1 (stereo partly drawn) [Compound 46, (20S)-20-dimethylamino-3β-(isobutyrylamino)-9,19-cyclo-4α-benzylaminomethyl-4β,14α-dimethyl-5α,9β-pregnan-16α-ol-11-one] | 33.9 |

same assay, conditions: read-out: AChE IC50

| SMILES | IC50 [µM] |
| --- | --- |
| C[C@@H]([C@H]1[C@H](O)C[C@@]2(C)[C@@H]3CC[C@@H]4C(=CC[C@@H]5N=C(c6ccccc6)OC[C@]54C)C[C@H]3C(=O)C[C@]12C)N(C)C [Compound 8b, (20S)-10(9->1)abeo-4,14α-dimethyl-20-dimethylamino(2′-phenyl-4′,4′-dihydro[3′,1′]oxazin)-5α,9-pregn-1(10)-en-16α-ol-11-one] | 7.65 |
